Test results from EP4786455A1, “NOVEL PHTHALAZINE DERIVATIVE COMPOUND AS SOS1 INHIBITOR, AND USE THEREOF” (Hanmi Pharmaceutical Co., Ltd., priority 2023, dated 2025).

Molecular target: T1, SOS1 (Homo sapiens, UniProt Q07889)
T1 construct: comprising amino acid residues 564-1049 corresponding to the catalytic domain; purchased Reaction Biology Corp. SOS1-Strep #MSC-11-502; GST-KRAS G12C #MSC-11-538
T1 sequence (Q07889 564-1049): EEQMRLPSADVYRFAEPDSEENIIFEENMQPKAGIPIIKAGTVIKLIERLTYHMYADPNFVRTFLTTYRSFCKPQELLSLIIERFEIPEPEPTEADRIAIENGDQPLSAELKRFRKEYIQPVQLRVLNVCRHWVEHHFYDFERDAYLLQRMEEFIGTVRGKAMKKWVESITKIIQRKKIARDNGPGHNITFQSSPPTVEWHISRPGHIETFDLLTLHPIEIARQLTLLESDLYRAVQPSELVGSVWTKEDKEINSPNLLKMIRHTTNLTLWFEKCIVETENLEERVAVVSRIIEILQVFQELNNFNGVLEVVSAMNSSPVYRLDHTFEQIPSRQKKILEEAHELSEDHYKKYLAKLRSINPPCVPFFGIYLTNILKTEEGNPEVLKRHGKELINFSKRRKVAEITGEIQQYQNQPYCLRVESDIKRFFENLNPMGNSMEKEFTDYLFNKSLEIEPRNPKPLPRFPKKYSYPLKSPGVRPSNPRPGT
Test: Inhibitory activity on SOS1-mediated GTP exchange (HTRF / TR-FRET nucleotide exchange assay on KRAS G12C)
Format: biochemical
Conditions: SOS1-mediated GTP exchange on GST-KRAS G12C (residues 2-169); SOS1-Strep catalytic domain (564-1049); GTP-DY-647P1; HTRF signal; 5-point concentration series up to 1,000 nM
Protocol: To evaluate whether the SOS1-mediated nucleotide exchange activity on KRAS G12C is inhibited by the compounds of the above Examples, a homogeneous time-resolved fluorescence (homogenous time-resolved fluorescence, HTRF) assay was performed using GST-KRAS G12C (#MSC-11-538) and SOS1-Strep (#MSC-11-502) obtained from Reaction Biology Corp. (USA, MA). The activity of SOS1 was determined by measuring the amount of GTP bound to the KRAS G12C protein based on the principle of time-resolved fluorescence resonance energy transfer (time-resolved fluorescence energy transfer, TR-FRET). Terbium (Terbium) conjugated to an anti-GST antibody bound to the GST tag of the GST-KRAS G12C protein served as a FRET donor, and GTP bound to the KRAS G12C protein was labeled with the fluorophore DY-647P1, serving as a FRET acceptor. Based on this principle, a higher HTRF or FRET signal is observed as more GTP is bound to KRAS G12C due to the SOS1-mediated exchange reaction in the assay.
In summary, a GST-labeled KRAS G12C protein (comprising amino acid residues 2-169), a […] SOS1 protein (comprising amino acid residues 564-1049 corresponding to the catalytic domain), an anti-GST antibody, labeled nucleotide GTP-DY-647P1, and the test compound were mixed in a buffer solution containing 20 mM HEPES (pH 7.4), 150 mM NaCl, 5 mM MgCl2, 1 mM dithiothreitol (DTT), 0.05% BSA, and 0.0025% NP40. The mixture was dispensed into a 384-well plate, incubated at room temperature, and the HTRF signal was measured using a PHERAstar microplate reader (BMG Labtech). The excitation wavelength was 337 nm, and emission was measured at 620/665 nm. A background signal value was determined from fluorescence measurements obtained in the absence of SOS1 protein and was subtracted from all measured HTRF values. A control value was determined from fluorescence measurements obtained in the absence of the synthesized compounds and was set as the 100% reference. Fluorescence signals were measured at compound concentrations of 0.1, 1, 10, 100, and 1,000 nM (5 points, 10-fold) or 1.6, 8, 40, 200, and 1,000 nM (5 points, 5-fold). The 50% inhibitory concentration (IC50) values of the compounds were calculated using GraphPad Prism.
IC50 values were denoted as +++ when 50 nM or less, ++ when greater than 50 nM and 100 nM or less, and + when greater than 100 nM.

Row | IC50 [nM] | Compound
1 | ≤ 50 | CNc1cc2c(N[C@H](C)c3cccc(C#N)c3C)nnc(C)c2cc1C(=O)N1CCC(F)(F)CC1 [Example 10, (R)-3-(1-((6-(4,4-difluoropiperidin-1-carbonyl)-4-methyl-7-(methylamino)phthalazin-1-yl)amino)ethyl)-2-methylbenzonitrile]
2 | ≤ 50 | COc1cc2c(N[C@H](C)c3cccc(C#N)c3C)nnc(C)c2cc1C(=O)N1CCOCC1 [Example 32, (R)-3-(1-((7-methoxy-4-methyl-6-(morpholine-4-carbonyl)phthalazin-1-yl)amino)ethyl)-2-methylbenzonitrile]
3 | ≤ 50 | CNc1cc2c(N[C@H](C)c3cccc(C#N)c3C)nnc(C)c2cc1C(=O)N1CC(F)C1 [Example 17, (R)-3-(1-((6-(3-fluoroazetidine-1-carbonyl)-4-methyl-7-(methylamino)phthalazin-1-yl)amino)ethyl)-2-methylbenzonitrile]
4 | ≤ 50 | CNc1cc2c(N[C@H](C)c3cccc(C#N)c3C)nnc(C)c2cc1C(=O)N1CCN(C(C)C)CC1 [Example 21, (R)-3-(1-((6-(4-isopropylpiperazine-1-carbonyl)-4-methyl-7-(methylamino)phthalazin-1-yl)amino)ethyl)-2-methylbenzonitrile]
5 | ≤ 50 | CNc1cc2c(N[C@H](C)c3cccc(C#N)c3C)nnc(C)c2cc1C(=O)N1CCCC1 [Example 14, (R)-2-methyl-3-(1-((4-methyl-7-(methylamino)-6-(pyrrolidine-1-carbonyl)phthalazin-1-yl)amino)ethyl)benzonitrile]
6 | ≤ 50 | Cc1c(C#N)cccc1[C@@H](C)Nc1nnc(C)c2cc(CN3CCN(C4CC4)CC3)c(NC3CCCC3)cc12 [Example 31, (R)-3-(1-((7-(cyclopentylamino)-6-((4-cyclopropylpiperazin-1-yl)methyl)-4-methylphthalazin-1-yl)amino)ethyl)-2-methylbenzonitrile]
7 | ≤ 50 | CNc1cc2c(N[C@H](C)c3cccc(C#N)c3C)nnc(C)c2cc1C(=O)N1CC2(COC2)C1 [Example 11, (R)-2-methyl-3-(1-((4-methyl-7-(methylamino)-6-(2-oxa-6-azaspiro[3.3]heptane-6-carbonyl)phthalazin-1-yl)amino)ethyl)benzonitrile]
8 | ≤ 50 | CNc1cc2c(N[C@H](C)c3cccc(C#N)c3C)nnc(C)c2cc1C(=O)N1CCC(N2CCOCC2)CC1 [Example 22, (R)-2-methyl-3-(1-((4-methyl-7-(methylamino)-6-(4-morpholinopiperidin-1-carbonyl)phthalazin-1-yl)amino)ethyl)benzonitrile]
9 | ≤ 50 | CNc1cc2c(N[C@H](C)c3cccc(C#N)c3C)nnc(C)c2cc1C(=O)N1CCN(C)CC1 [Example 8, (R)-2-methyl-3-(1-((4-methyl-7-(methylamino)-6-(4-methylpiperazine-1-carbonyl)phthalazin-1-yl)amino)ethyl)benzonitrile]
10 | ≤ 50 | CNc1cc2c(N[C@H](C)c3cccc(C#N)c3C)nnc(C)c2cc1C(=O)N1CC2CC1CO2 (stereo partly drawn) [Example 19, 3-((1R)-1-((6-(2-oxa-5-azabicyclo[2.2.1]heptane-5-carbonyl)-4-methyl-7-(methylamino)phthalazin-1-yl)amino)ethyl)-2-methylbenzonitrile]
11 | ≤ 50 | CNc1cc2c(N[C@H](C)c3cccc(C#N)c3C)nnc(C)c2cc1CN1CCOCC1 [Example 29, (R)-2-methyl-3-(1-((4-methyl-7-(methylamino)-6-(morpholinomethyl)phthalazin-1-yl)amino)ethyl)benzonitrile]
12 | ≤ 50 | CNc1cc2c(N[C@H](C)c3cccc(C#N)c3C)nnc(C)c2cc1C(=O)NCCN1CCOCC1 [Example 23, (R)-1-((1-(3-cyano-2-methylphenyl)ethyl)amino)-4-methyl-7-(methylamino)-N-(2-morpholinoethyl)phthalazine-6-carboxamide]
13 | ≤ 50 | CNc1cc2c(N[C@H](C)c3cccc(C#N)c3C)nnc(C)c2cc1C(=O)N1CCOCC1 [Example 1, (R)-2-methyl-3-(1-((4-methyl-7-(methylamino)-6-(morpholine-4-carbonyl)phthalazin-1-yl)amino)ethyl)benzonitrile]
14 | ≤ 50 | CNc1cc2c(N[C@H](C)c3cccc(C(F)(F)CO)c3)nnc(C)c2cc1C(=O)N1CCOCC1 [Example 27, (R)-(1-((1-(3-(1,1-difluoro-2-hydroxyethyl)phenyl)ethyl)amino)-4-methyl-7-(methylamino)phthalazin-6-yl)(morpholino)methanone]
15 | ≤ 50 | CNc1cc2c(N[C@H](C)c3cc(N)cc(C(F)F)c3F)nnc(C)c2cc1C(=O)N1CCOCC1 [Example 26, (R)-(1-((1-(5-amino-3-(difluoromethyl)-2-fluorophenyl)ethyl)amino)-4-methyl-7-(methylamino)phthalazin-6-yl)(morpholino)methanone]
16 | ≤ 50 | CNc1cc2c(N[C@H](C)c3cc(N)cc(C(F)(F)F)c3)nnc(C)c2cc1C(=O)N1CCOCC1 [Example 25, (R)-(1-((1-(3-amino-5-(trifluoromethyl)phenyl)ethyl)amino)-4-methyl-7-(methylamino)phthalazin-6-yl)(morpholino)methanone]
17 | ≤ 50 | CNc1cc2c(N[C@H](C)c3cccc(C#N)c3C)nnc(C)c2cc1C(=O)NC1CCOCC1 [Example 5, (R)-1-((1-(3-cyano-2-methylphenyl)ethyl)amino)-4-methyl-7-(methylamino)-N-(tetrahydro-2H-pyran-4-yl)phthalazine-6-carboxamide]
18 | ≤ 50 | CNc1cc2c(N[C@H](C)c3cccc(C#N)c3C)nnc(C)c2cc1C(=O)N1CCCCC1 [Example 15, (R)-2-methyl-3-(1-((4-methyl-7-(methylamino)-6-(piperidine-1-carbonyl)phthalazin-1-yl)amino)ethyl)benzonitrile]
19 | ≤ 50 | CNc1cc2c(N[C@H](C)c3cccc(C#N)c3C)nnc(C)c2cc1C(=O)N1CCSC1 [Example 3, (R)-2-methyl-3-(1-((4-methyl-7-(methylamino)-6-(thiazolidine-3-carbonyl)phthalazin-1-yl)amino)ethyl)benzonitrile]
20 | ≤ 50 | COc1cc2c(N[C@H](C)c3cccc(C#N)c3C)nnc(C)c2cc1CN1CCOCC1 [Example 28, (R)-3-(1-((7-methoxy-4-methyl-6-(morpholinomethyl)phthalazin-1-yl)amino)ethyl)-2-methylbenzonitrile]
21 | ≤ 50 | CNc1cc2c(N[C@H](C)c3cccc(C#N)c3C)nnc(C)c2cc1C(=O)N1CCNCC1 [Example 9, (R)-2-methyl-3-(1-((4-methyl-7-(methylamino)-6-(piperazine-1-carbonyl)phthalazin-1-yl)amino)ethyl)benzonitrile]
22 | ≤ 50 | CNc1cc2c(N[C@H](C)c3cccc(C#N)c3C)nnc(C)c2cc1C(=O)N(C)C1CCOCC1 [Example 6, (R)-1-((1-(3-cyano-2-methylphenyl)ethyl)amino)-N,4-dimethyl-7-(methylamino)-N-(tetrahydro-2H-pyran-4-yl)phthalazine-6-carboxamide]
23 | ≤ 50 | CNc1cc2c(N[C@H](C)c3cccc(C#N)c3C)nnc(C)c2cc1C(=O)N1CCSCC1 [Example 2, (R)-2-methyl-3-(1-((4-methyl-7-(methylamino)-6-(thiomorpholine-4-carbonyl)phthalazin-1-yl)amino)ethyl)benzonitrile]
24 | ≤ 50 | CNc1cc2c(N[C@H](C)c3cccc(C#N)c3C)nnc(C)c2cc1C(=O)N1CCN(C2CCCCC2)CC1 [Example 20, (R)-3-(1-((6-(4-cyclohexylpiperazine-1-carbonyl)-4-methyl-7-(methylamino)phthalazin-1-yl)amino)ethyl)-2-methylbenzonitrile]
